The values that follow come from patent publication US20140127235A1, “TARGETING HK alpha FOR CONTROLLING BLOOD PRESSURE AND REGULATING ELECTROLYTE BALANCE” (UNIVERSITY OF FLORIDA RESEARCH FOUNDATION, INC., priority 2011, published 2014).

Common to all, as to format: in vivo, mouse
One data set has as its system H^+,K^+-ATPase. Put plainly: H+,K+-ATPase-mediated H+ secretion (JH) in intercalated cells of microperfused inner cortical collecting ducts from DOCP-treated mice (BCECF-AM). The method, then:
One likely mechanism for mineralocorticoid-induced changes in acid-base homeostasis was stimulation of renal H^+,K^+-ATPase activity in response to mineralocorticoid-induced K^+ deficits. Therefore, H^+,K^+-ATPase activity was assessed in inner cortical collecting ducts from control and DOCP-treated mice. Individual intercalated cells from microperfused collecting ducts were loaded with the pH sensitive fluorescent dye, BCECF-AM. The addition of inhibitors of the Na^+/H^+ exchanger and the H^+-ATPase allowed for the measurement of H^+,K^+-ATPase-mediated H^+ secretion (JH) in response to an acute intracellular acid load (NH4Cl). The overall rate of H^+,K^+-ATPase-mediated JH in intercalated cells from control mice was quite slow (˜15H^+/min) (FIG. 1).
Additional experiments were conducted to identify which intercalated cell subtype was responsible for the DOCP-induced increase in H^+,K^+-ATPase mediated JH. Again, the rate of H^+,K^+-ATPase-mediated JH was measured in intercalated cells of inner cortical collecting ducts from control and DOCP-treated mice. At the end of the experiment, A- and B-type ICs were differentiated by peritubular Cl^− removal and return as has been described previously^12,13 The characteristic inverse responses of A- and B-type intercalated cells to Cl^− removal and return were observed (Table 2). […]
Inner cortical collecting ducts were hand dissected at 4° C., transferred to a mounting chamber and perfused as described previously.^25 The ratiometric, pH sensitive dye, BCECF-AM (15 μM, Invitrogen) was added to the luminal perfusate for 10 minutes and fluorescence measurements were performed after dye de-esterification. […] Recovery rates were calculated from the linear portion of the pH, recovery phase starting with the lowest pH, achieved. The intrinsic buffering capacity was calculated from the formula βi=ΔHi/ΔpHi where ΔHi is the change in the calculated [NH4]i and ΔpHi the change in pHi during the acid loaded phase. Acid secretion rates (JH) were calculated from the formula JH=βi*ΔpH, (U/min) and expressed as [H^+]/min. […]

Data set [1] is described as follows: Survival of DOCP-treated WT and HKα1,2−/− mice over 60 days. Conditions: two injections of DOCP on day zero and day 57. The source says:
These animals all received two injections of DOCP on day zero and day 57. Four of the HKα1,2^−/− mice died at day's nine 46, 47, and 59 for an overall survival at 60 days of 57% for the HKα1,2^−/− mice whereas there were no deaths in the nine WT animals X^2 (log-rank): 4.554 (P<0.05).

Data set [2] can be described thus: Radiotelemetry (blood pressure, heart rate, locomotor activity) in WT and HKα1,2−/− mice, control and DOCP. Conditions: for Mean arterial pressures / Heart rate / Locomotor activity: DOCP. The text has this:
Age matched, male C56BL/6 WT and C56BL/6 HKα1,2^−/− mice were anesthetized using 5% isoflurane, and radiotelemetry transmitters (PA-C10, Data Sciences, St. Paul, Minn.) were implanted under sterile conditions (1-3% continuous isoflurane). The catheter was placed in the left carotid artery and the housing of the transmitter was implanted subcutaneously on the animal's right flank. Mice were allowed to recover for a period of at least 14 days prior to recordings. These mice were not subject to metabolic cage experiments or blood and tissue collections. Mice were fed a normal lab chow (Teklad 2018, 0.2% Na and 0.5% K) and allowed free access to water. DOCP treated mice received an intramuscular injection of 1.7 mg DOCP (Percorten V, Novartis Pharmaceuticals) and were fed the normal gel diet described previously supplemented with NaCl to equal 0.4% Na^+ ad libitum for 8 days with free access to water. Radiotelemetry recordings were performed one week before and one week after DOCP treatment. At the time of the control recording, mice ranged in age from 15-25 weeks. Recording were made for 2 minutes at the beginning of each hour or for 2 minutes every 10 minutes for 48 hours. Moving averages were calculated for each hour. Comparisons of systolic BP, HR, and LA were made for the main effects 1) DOCP treated versus untreated and 2) WT versus HKα1,2^−/− mice. Differences between the daytime (06:00-17:59) and nighttime (18:00-05:59) values for these parameters were also compared.
Radiotelemetry was performed in order to assess genotypic differences in systolic BP, HR and LM during normal and DOCP treatment. Example 48 hr tracings of systolic BP, HR, and LA comparing WT and HKα1,2^−/− during normal and DOCP treatment are shown in FIG. 13.

In the case of `CC(C)(C)C(=O)OCC(=O)[C@H]1CC[C@H]2[C@@H]3CCC4=CC(=O)CC[C@]4(C)[C@H]3CC[C@]12C` [DOCP, desoxycorticosterone pivalate], the “increase in H+,K+-ATPase-mediated JH” value with H^+,K^+-ATPase (A-type intercalated cells, DOCP-treated versus control mice) was “approximately 60%”; in the data set with H^+,K^+-ATPase (intercalated cells from DOCP-treated mice (eight days) versus control), “greater than 60%”. Besides, the “rate of H+,K+-ATPase-mediated JH” value in the data set on H^+,K^+-ATPase (B type ICs, DOCP-treated versus control mice) is listed as “not affected”. The “overall survival at 60 days” value in data set [1] (HKα1,2−/− mice (seven)) is 57%. Further, the “deaths over 60 days” value in data set [1] (nine WT mice) is “no deaths”. For the same compound, the “effect on daytime or nighttime systolic BP” value in data set [2] (HKα1,2−/− mice) is “failed to significantly increase”. The Mean arterial pressures in data set [2] (HKα1,2−/− mice, Daytime (Inactive)) worked out at 112.7 ± 1.8 mmHg; in data set [2] (HKα1,2−/− mice, Nighttime (Active)), 118.5 ± 2.4 mmHg; in data set [2] (WT mice, Daytime (Inactive)), 112.9 ± 2.3 mmHg; in data set [2] (WT mice, Nighttime (Active)), 122.5 ± 2.9 mmHg. The Heart rate in data set [2] (HKα1,2−/− mice, Daytime) worked out at 554.8 ± 21.4 beats/min; in data set [2] (HKα1,2−/− mice, Nighttime) it was 580.5 ± 20.1 beats/min; in data set [2] (WT mice, Daytime), 496.7 ± 17.5 beats/min; in data set [2] (WT mice, Nighttime) it was 533.5 ± 17.2 beats/min. Besides, the Locomotor activity in data set [2] (HKα1,2−/− mice, Daytime) is given as 3.267 ± 0.603; in data set [2] (HKα1,2−/− mice, Nighttime), 5.410 ± 1.078; in data set [2] (WT mice, Daytime), 3.913 ± 0.407; in data set [2] (WT mice, Nighttime) it was 7.036 ± 0.735. Also, the “effect on locomotor activity (LA)” value in data set [2] (WT and HKα1,2−/− mice) was “did not significantly affect”. The “effect on systolic BP during the day and night” value in data set [2] (WT mice) is on record as “significantly increased”. The “effect on HR during the night” value in data set [2] (WT mice, DOCP treatment) was “significant decrease”.
